# “And” between values parts separate entries of the source, which are not always exact repeats. Identical values can stand only once. Like-named read-outs stand apart in the source and are kept apart here.
# What was measured:
# [1] = test system: HIV-1 RoJo; experiment: PBMC assay, HIV-1 RoJo replication (RT activity); type: cell-based; conditions: for IC50: RoJo, PBMC; for IC50 (50% inhibition of virus replication): 6 days; for anti-viral activity against HIV-1 RoJo virus: in vitro
# Description: Human peripheral blood mononuclear cells from a minimum of two donors, that have been blasted with PHA and IL-2, were counted, viability determined by Trypan Blue dye exclusion and mixed in equal ratios. Pooled donors were used to minimize the variability observed between individual donors which results from quantitative and qualitative differences in HIV infection and overall response to the PHA and IL-2 of primary lymphocyte populations. […] Fifty microliters of cells were then distributed to the inner 60 wells of a 96 well round bottom microtiter culture plate in a standard format developed by the Infectious Disease Research department of Southern Research Institute. Each plate contains cell control wells (cells only), virus control wells (cells plus virus), and experimental wells (drug plus cells plus virus). Serially diluted compounds were added to the microtiter plate followed by the appropriate pretitered dilution of HIV-1 RoJo. All samples were assayed in triplicate with a replicate plate without virus for the determination of compound toxicity. The final volume per well was 200 μL. The assay was incubated for 6 days in a humidified atmosphere at 37° C., 5% CO2, after which supernatants were collected, for analysis of RT activity and sister plates analyzed for cell viability by MTS dye reduction. Wells were also examined microscopically and any abnormalities noted.
# Reverse transcriptase (RT) activity was measured in cell-free supernatants. Tritiated thymidine triphosphate (NEN) (TTP) was resuspended in distilled H2O at 5 Ci/mL. Poly rA and oligo dT were prepared as a stock solution which was kept at −20° C. The RT reaction buffer was prepared fresh on a daily basis and consists of 125 μL 1.0 M EGTA, 125 μL dH2O, 110 μL 10% SDS, 50 μL 1.0 M Tris (pH 7.4), 50 μL 1.0 M DTT, and 40 μL 1.0 M MgCl2. These three solutions were mixed together in a ratio of two parts TTP, one part poly rA:oligo dT, and one part reaction buffer. Ten microliters of this reaction mixture were placed in a round bottom microtiter plate and 15 μL of virus containing supernatant was added and mixed. The plate was incubated at 37° C. in a water bath with a solid support to prevent submersion of the plate and incubated for 60 minutes. Following reaction, the reaction volume was spotted onto pieces of DE81 paper, washed 5 times for 5 minutes each in a 5% sodium phosphate buffer, two times for one minute each in distilled water, two times for one minute each in 70% ethanol, and then dried.
# The IC50 and TC50 values were calculated by linear regression. The TI represents the ratio of the TC50/IC50, and is used to determine relative potency between compounds.
# [2] = test system: monocyte/macrophages; experiment: MTS staining for cell viability, monocyte/macrophages; type: cell-based, human
# Description: Peripheral blood monocytes were isolated from normal HIV-1 negative donors by plastic adherence following ficoll hypaque purification of the buffy coat, as described above for PBMCs. In many cases the same donor used to produce the PBMC populations was also used to produce monocyte/macrophages, however unlike PBMC population monocyte/macrophage, donors were never pooled. […] The monocytes were released from the plastic by vigorous pipetting with Ca^2+ and Mg^2+ free PBS. […] The monocytes (1×10^5 per 0.2 cm well) were then cultured for six days, allowing maturation of the cells to a macrophagelike phenotype. […] Cultures were washed a final time by media removal 24 hours post infection, fresh compound added and the cultures continued for an additional six days. The assays were preformed using a standardized microtiter plate format, which uses only the inner 60 wells of a 96 well plate for assay purposes. The outer rows contain media and acts an a evaporation barrier. Each plate contains cell control wells (cells only), virus control wells (cells plus virus), and experimental wells (drug plus cells plus virus). HIV p24 antigen content to assess virus replication was measured at assay termination by a commercially available p24 ELISA assay (Coulter) on cell-free supernatants, and compound cytotoxicity by MTS dye reduction. […]
# [3] = test system: Subtype A RW/92/016; experiment: PBMC assay, HIV-1 subtype A; type: cell-based; conditions: Subtype A RW/92/016, PBMC
# [4] = test system: Subtype B 302056 (91US056); experiment: PBMC assay, HIV-1 subtype B; type: cell-based
# [5] = test system: Subtype C BR/92/025; experiment: PBMC assay, HIV-1 subtype C; type: cell-based; conditions: Subtype C BR/92/025, PBMC
# [6] = test system: Subtype D UG/92/046; experiment: PBMC assay, HIV-1 subtype D; type: cell-based; conditions: Subtype D UG/92/046, PBMC
# [7] = test system: Subtype F BR/93/020; experiment: PBMC assay, HIV-1 subtype F; type: cell-based; conditions: Subtype F BR/93/020, PBMC
# [8] = test system: Subtype G Jv1083; experiment: PBMC assay, HIV-1 subtype G; type: cell-based
# [9] = test system: Subtype O BCOF-01; experiment: PBMC assay, HIV-1 subtype O; type: cell-based; conditions: Subtype O BCOF-01, PBMC
# [10] = test system: WeJo; experiment: PBMC assay, HIV-1 WeJo; type: cell-based
# [11] = test system: SLKA; experiment: PBMC assay, HIV-1 SLKA; type: cell-based
# [12] = test system: TEKI; experiment: PBMC assay, HIV-1 TEKI; type: cell-based
# [13] = test system: HIV-1 ADA; experiment: Monocyte/macrophage assay, HIV-1 ADA (p24 ELISA); type: cell-based; conditions: monocytes
# Description: (§1) Peripheral blood monocytes were isolated from normal HIV-1 negative donors by plastic adherence following ficoll hypaque purification of the buffy coat, as described above for PBMCs. In many cases the same donor used to produce the PBMC populations was also used to produce monocyte/macrophages, however unlike PBMC population monocyte/macrophage, donors were never pooled. Following a two hour adherence in RPMI 1640 without phenol red supplemented with 10% human pooled AB serum (heat inactivated), 2 mM L-glutamine, 100 U/mL penicillin, 100 μg/mL streptomycin, 10 μg/mL gentamycin, cultures were washed to remove non-adherent cells. […] Adherent cells were assessed for purity by nonspecific esterase staining (a-napthyl butyrate specific esterase, Sigma Chemical Co.), and/or viability by Trypan Blue dye exclusion, counted and resuspended in RPMI 1640 supplemented with 10% Fetal Bovine Serum (heat inactivated), 2 mM L-glutamine, 100 U/mL penicillin, 100 μg/mL streptomycin, 10 μg/mL gentamycin at 1×10^6 monocytes per ml. […] HIV p24 antigen content to assess virus replication was measured at assay termination by a commercially available p24 ELISA assay (Coulter) on cell-free supernatants, and compound cytotoxicity by MTS dye reduction. […]
# (§2) ELISA kits were purchased from Coulter Electronics. […] Control curves were generated in each assay to accurately quantitate the amount of p24 antigen in each sample. […]
# [14] = test system: HIV-1 Ba-L; experiment: Monocyte/macrophage assay, HIV-1 Ba-L (p24 ELISA); type: cell-based; conditions: monocytes
# Description: as §1, §2
# [15] = test system: SIVmac251; experiment: PBMC assay, SIVmac251; type: cell-based, SIV
# [16] = test system: HIV-2 (CDC 310319); experiment: PBMC assay, HIV-2; type: cell-based
# [17] = test system: MDR769; conditions: MDR769, PBMC
# Description: (§3) Human immunodeficiency virus type 1 (HIV-1) strains Ba-L, ADA, SIVmac251, HIV-2 (CDC3 10319) and the subtype representative strains (Table 6) were obtained from the NIAID AIDS Research and Reference Reagent Program. The low passage pediatric isolates SLKA, WeJo and TeKi were derived in the laboratories of Southern Research Institute.
# PBMC assays were carried out as described in Example 6.
# Reverse transcriptase (RT) activity was measured in cell-free supernatants as described in Example 6.
# [18] = test system: HIV-1 clinical isolates, SIV and HIV-2; conditions: all viruses of Table 8
# Description: The inhibition of HIV-1 ADA and BaL replication in monocyte/macrophages was also assessed.
# as §3
# [19] = test system: Subtype E CMU02; experiment: PBMC assay, HIV-1 subtype E; type: cell-based
# [20] = IC50 basis, HIV-1 RoJo, PBMCs, Example 6
molecule,measurement,setting,value
Cc1cn([C@H]2C[C@H](N=[N+]=[N-])[C@@H](CO)O2)c(=O)[nH]c1=O [AZT],IC50,"[1]; Example 7, read-out: IC50",2 nM
same,CC50,[2],1000 nM
same,IC50,[3],1 nM
same,IC50,[4]; read-out: IC50,10 nM
same,IC50,[5]; read-out: IC50,5 nM
same,IC50,[6],1 nM
same,IC50,[7]; read-out: IC50,3 nM
same,IC50,[8]; read-out: IC50,6 nM
same,IC50,[9],3 nM
same,IC50,[10],3 nM
same,IC50,[11],2 nM
same,IC50,[12],10 nM
same,IC50,[13],7 nM
same,IC50,[14],4 nM
same,IC50,[15]; read-out: IC50,2 nM
same,IC50,[16]; read-out: IC50,0.4 nM
"dextran sulfate, 17-20% sulfur, molecular weight 39,700 [DES 17-20% Sulfation]",IC50 (50% inhibition of virus replication),"[1]; HIV-1 RoJo, PBMCs, Example 6",0.5 µg/mL and 1.0 µg/mL
same,anti-viral activity against HIV-1 RoJo virus,[1],significant anti-viral activity
"sulfated dextran, 9.5% sulfur, molecular weight 30,000 [DES 9.5% Sulfation]",fold less active than DES […] Sulfation,"[1]; HIV-1 RoJo infected PBMCs, Example 7",37 fold
same,IC50 (50% inhibition of virus replication),"[1]; HIV-1 RoJo, PBMCs, Example 6",19.4 µg/mL
same,fold less active than DES 17-20% Sulfation,[1]; [20],39 fold
same,fold less active than DES […] Sulfation,[1]; [20],12 fold
same,anti-viral activity against HIV-1 RoJo virus,[1],significant anti-viral activity
same,IC50,[8],> 100 µg/mL
same,IC50,[17],13 µg/mL
same,IC50,[16],5.1 µg/mL
same,"IC50s, range over the virus panel",[18],5.1 to >100 μg/ml
"sulfated dextran, 12.2% sulfur, molecular weight 36,000 [DES 12.5% Sulfation]",IC50 (50% inhibition of virus replication),"[1]; HIV-1 RoJo, PBMCs, Example 6",1.6 µg/mL
same,IC50,[1]; Example 7,.7 µg/mL
same,anti-viral activity against HIV-1 RoJo virus,[1],significant anti-viral activity
same,IC50,[4],.8 µg/mL
same,IC50,[5],10.3 µg/mL
same,IC50,[19],.7 µg/mL
same,IC50,[7],.3 µg/mL
same,IC50,[8],11.7 µg/mL
same,IC50,[17],.7 µg/mL
same,IC50,[15],.6 µg/mL

# From patent US20070027109A1 (priority 2002, published 2007)
